Reference: patent publication US12448359B2, “Compounds with immunomodulatory activity and therapeutic uses thereof” (Purdue Research Foundation, priority 2020, dated 2025)

Molecular target: PD-1/PD-L1 interaction (Homo sapiens (Human), UniProt Q9NZQ7)
Assay: PD1/PD-L1 HTRF assay (Cisbio kit), inhibition of PD-1/PD-L1 interaction
Type: binding
Details: for IC50 / IC50 value: HTRF, inhibition of PD-1/PD-L1 interaction, 4PL fit; for inhibition to PD-1/PD-L1 interaction (in words): HTRF assay
Protocol: Briefly, 2 μL of the compound, 4 μL from a 25 nM Tagl-PD-L1 protein solution and 4 μL from a 250 nM Tag2-PD1 protein were added into a Cisbio's HTRF 96-well low volume white plate. Then, the plate was incubated for 15 minutes at room temperature. Next, 10 μL from pre-mixed anti-tag detection reagents (5 μL from 1X anti-Tagl-Eu^3+ and 5 μL from 1X anti-Tag2-XL665) were added and the sealed plate was incubated for 2 hours at room temperature. Finally, the plate sealer was removed, and measurements were taken using a HTRF® compatible reader. This protocol used 12 different concentrations of each compound where the maximum and minimum assay concentrations are 10,000 nM and 0.001 nM respectively.
To calculate ΔF/ΔFmax, first the HTRF ratio is calculated as follows;
A multiplication factor of 10000 factor was used to not deal with decimal values that improves data accuracy during calculation. The AR ratio indicating “specific signal” of the compound disrupting the PD-1/PD-L1 interaction was calculated by subtracting background HTRF ratio (negative DMSO control in our work) from each compound (sample) HTRF ratio as follows; ΔR=HTRF ratio (sample)−HTRF ratio (background)
Next, data normalization was done to minimize variation in values on different days, different plate reader instruments, or if the assay was done by different individuals. The normalization was done with respect to the background HTRF ratio and was calculated as follows;
Finally, the ΔF/ΔFmax ratio was calculated to enable comparison of values between multiple experiments.
[formula] wherein ΔF max is taken as the ΔF of the positive DMSO control in the assay.
The IC50 value for PD-1/PD-L1 inhibition was determined by analyzing the log of the concentration—response curves to fit a sigmoid curve with four-parameter logistic (4PL) regression using the GraphPad Prism Software version 8.3.0 for Windows, GraphPad Software, La Jolla California USA, www.graphpad.com. Following equation defines the regression curve.
[formula] wherein X=Log of concentration, Y=Response ΔF/ΔFmax, Top and Bottom=Plateaus in same units as Y, LogIC50=Same log units as X, HillSlope=Slope factor or Hill Slope, Unitless. Using the above equation, LogIC50, is calculated to obtain the IC50 value for each compound. The HTRF_IC50_Data.xlsx data file with all replicates is provided as a Supporting File for use in GraphPad Prism Software to calculate IC50 values.

PD-1/PD-L1 interaction, sequence (Q9NZQ7 19-238): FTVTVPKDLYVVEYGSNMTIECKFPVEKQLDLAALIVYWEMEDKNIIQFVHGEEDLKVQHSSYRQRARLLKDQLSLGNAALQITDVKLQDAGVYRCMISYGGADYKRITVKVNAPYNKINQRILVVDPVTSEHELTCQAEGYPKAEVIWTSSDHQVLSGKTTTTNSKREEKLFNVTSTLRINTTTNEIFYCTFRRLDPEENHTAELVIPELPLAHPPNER

Row | Structure (SMILES) | IC50 [nM] | inhibition to PD-1/PD-L1 interaction (in words) | IC50 value
1 | COc1cc(OCc2cccc(-c3ccc4c(c3)OCCO4)c2C)cc(OC)c1CN[C@H](CO)C(=O)O [Compound 4b] | 340 |  | 
2 | COc1cc(OCc2cccc(-c3ccccc3)c2C)cc(OC)c1CN1CCC[C@H](C(=O)O)C1 [Compound 4e, (S)-1-(2,6-dimethoxy-4-((2-methyl-[1,1′-biphenyl]-3-yl)methoxy)benzyl)piperidine-3-carboxylic acid] | 1260 | no/poor inhibition | 
3 | C#C[C@]1(O)CC[C@H]2[C@@H]3[C@H](C)CC4=CC(=O)CCC4[C@H]3CC[C@@]21C (stereo partly drawn) [Compound 4d, (7R,8R,9S,13S,14S,17R)-17-ethynyl-17-hydroxy-7,13-dimethyl-1,2,6,7,8,9,10,11,12,13,14,15,16,17-tetradecahydro-3H-cyclopenta[a]phenanthren-3-one] |  | no/poor inhibition | no inhibition
4 | COc1cc(OCc2cccc(-c3ccccc3)c2C)cc(OC)c1CNC(CC(F)(F)F)c1ccccc1 (stereo not shown) [Compound 4c, N-(2,6-dimethoxy-4-((2-methyl-[1,1′-biphenyl]-3-yl)methoxy)benzyl)-3,3,3-trifluoro-1-phenylpropan-1-amine] |  | no/poor inhibition | no inhibition
